Experimental data from US9707233B2, “Heterocyclylamines as PI3K inhibitors” (Incyte Corporation, priority 2011, dated 2017).

Biological target: PI3Kδ (p110δ/p85α) (Homo sapiens (Human), UniProt O00329)
Test: PI3Kδ scintillation proximity assay (Example A3)
Format: biochemical
Conditions: 20 μM ATP, 20 μM PIP2, 4 nM PI3Kδ; read-out: PI3Kδ SPA IC50
In short: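 IC50 derived by fitting percent control activity against log inhibitor concentration. Radiolabelled product was measured by scintillation counting on WGA SPA beads after overnight shaking. The kinase reaction used 4 nM p110δ/p85α, 20 μM ATP (with [γ-33P]ATP) and 20 μM PIP2 at pH 6.7 and room temperature, with 0.5% DMSO final.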

Chain of PI3Kδ (p110δ/p85α) (O00329 whole entry): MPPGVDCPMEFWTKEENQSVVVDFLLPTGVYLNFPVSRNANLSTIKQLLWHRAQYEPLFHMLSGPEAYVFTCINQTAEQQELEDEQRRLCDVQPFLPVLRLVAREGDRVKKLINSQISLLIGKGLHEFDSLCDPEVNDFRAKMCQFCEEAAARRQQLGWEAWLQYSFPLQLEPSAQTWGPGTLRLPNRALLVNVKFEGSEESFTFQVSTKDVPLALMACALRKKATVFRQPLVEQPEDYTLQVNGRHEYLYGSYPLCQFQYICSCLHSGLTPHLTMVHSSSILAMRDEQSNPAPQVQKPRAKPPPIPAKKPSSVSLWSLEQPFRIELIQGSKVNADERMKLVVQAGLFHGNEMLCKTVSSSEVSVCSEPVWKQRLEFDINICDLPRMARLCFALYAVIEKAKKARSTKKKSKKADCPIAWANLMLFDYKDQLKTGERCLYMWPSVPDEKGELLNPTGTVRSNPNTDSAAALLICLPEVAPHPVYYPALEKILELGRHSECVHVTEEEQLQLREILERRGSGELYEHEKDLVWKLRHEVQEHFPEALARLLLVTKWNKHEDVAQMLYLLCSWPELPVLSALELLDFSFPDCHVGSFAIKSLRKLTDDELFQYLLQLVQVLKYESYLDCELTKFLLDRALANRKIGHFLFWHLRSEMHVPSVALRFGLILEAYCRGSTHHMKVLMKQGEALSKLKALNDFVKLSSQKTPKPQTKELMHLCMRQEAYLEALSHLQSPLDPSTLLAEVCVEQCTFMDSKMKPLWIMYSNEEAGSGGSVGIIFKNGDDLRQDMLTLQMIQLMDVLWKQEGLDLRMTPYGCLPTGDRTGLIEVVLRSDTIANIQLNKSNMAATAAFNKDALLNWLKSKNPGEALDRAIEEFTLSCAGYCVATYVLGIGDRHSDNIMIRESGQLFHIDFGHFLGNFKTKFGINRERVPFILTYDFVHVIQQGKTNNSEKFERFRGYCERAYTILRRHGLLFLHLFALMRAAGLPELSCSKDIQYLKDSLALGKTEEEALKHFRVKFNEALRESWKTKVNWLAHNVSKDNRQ
Chain of PI3Kδ (p110δ/p85α) (P27986 whole entry partner): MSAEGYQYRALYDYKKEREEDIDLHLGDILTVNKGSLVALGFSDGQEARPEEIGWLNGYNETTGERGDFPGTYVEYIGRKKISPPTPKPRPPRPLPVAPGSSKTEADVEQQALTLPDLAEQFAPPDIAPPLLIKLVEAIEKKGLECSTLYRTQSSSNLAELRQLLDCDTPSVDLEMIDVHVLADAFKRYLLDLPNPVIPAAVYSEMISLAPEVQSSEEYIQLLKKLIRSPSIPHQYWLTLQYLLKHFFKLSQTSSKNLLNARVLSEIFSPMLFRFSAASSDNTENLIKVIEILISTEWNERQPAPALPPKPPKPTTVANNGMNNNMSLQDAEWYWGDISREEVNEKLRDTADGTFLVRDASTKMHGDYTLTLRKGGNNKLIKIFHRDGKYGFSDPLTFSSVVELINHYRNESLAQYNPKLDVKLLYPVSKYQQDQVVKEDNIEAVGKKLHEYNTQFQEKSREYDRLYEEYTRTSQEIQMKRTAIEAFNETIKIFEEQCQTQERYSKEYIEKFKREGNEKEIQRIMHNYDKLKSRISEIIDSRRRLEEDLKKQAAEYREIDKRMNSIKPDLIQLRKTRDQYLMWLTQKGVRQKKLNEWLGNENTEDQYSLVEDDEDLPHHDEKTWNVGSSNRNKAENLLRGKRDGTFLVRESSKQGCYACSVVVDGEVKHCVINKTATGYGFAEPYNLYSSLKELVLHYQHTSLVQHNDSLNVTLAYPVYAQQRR

Row | SMILES | IC50 [nM]
1 | COc1c(C(C)n2nc(C)c3c(N)ncnc32)cc(Cl)c(C)c1C1CC1 (single isomer, unassigned) [Example 192, 1-[1-(5-Chloro-3-cyclopropyl-2-methoxy-4-methylphenyl)ethyl]-3-methyl-1H-pyrazolo[3,4-d]pyrimidin-4-amine] | 10 to 50
2 | COc1c(C(C)n2nc(C)c3c(N)ncnc32)cc(Cl)c(C)c1CC1CC1 (single isomer, unassigned) [Example 193, 1-{1-[5-Chloro-3-(cyclopropylmethyl)-2-methoxy-4-methylphenyl]ethyl}-3-methyl-1H-pyrazolo[3,4-d]pyrimidin-4-amine] | 50 to 200
3 | COc1c(C(C)n2nc(C)c3c(N)ncnc32)cc(C#N)c(C)c1-c1cnn(C)c1 (single isomer, unassigned) [Example 209, 5-[1-(4-Amino-3-methyl-1H-pyrazolo[3,4-d]pyrimidin-1-yl)ethyl]-4-methoxy-2-methyl-3-(1-methyl-1H-pyrazol-4-yl)benzonitrile] | 10 to 50
4 | CCOc1c(C(C)n2nc(C)c3c(N)ncnc32)cc(Cl)c(C#N)c1C1CN(C2CCOC2)C1 (single isomer, unassigned) [Example 227, 4-[1-(4-Amino-3-methyl-1H-pyrazolo[3,4-d]pyrimidin-1-yl)ethyl]-6-chloro-3-ethoxy-2-[1-(tetrahydrofuran-3-yl)azetidin-3-yl]benzonitrile] | ≤ 10
5 | CCOc1c(C(C)n2nc(C)c3c(N)ncnc32)cc(Cl)c(C#N)c1C1CN(CC2CCOC2)C1 (single isomer, unassigned) [Example 230, 4-[1-(4-Amino-3-methyl-1H-pyrazolo[3,4-d]pyrimidin-1-yl)ethyl]-6-chloro-3-ethoxy-2-[1-(tetrahydrofuran-3-ylmethyl)azetidin-3-yl]benzonitrile] | ≤ 10
6 | CCOc1c(C(C)n2nc(C)c3c(N)ncnc32)cc(Cl)c(C#N)c1C1CN(CC2CCOCC2)C1 (single isomer, unassigned) [Example 232, 4-[1-(4-Amino-3-methyl-1H-pyrazolo[3,4-d]pyrimidin-1-yl)ethyl]-6-chloro-3-ethoxy-2-[1-(tetrahydro-2H-pyran-4-ylmethyl)azetidin-3-yl]benzonitrile] | ≤ 10
7 | CCOc1c(C(C)n2nc(C)c3c(N)ncnc32)cc(Cl)c(C#N)c1C1CN(CC(F)(F)F)C1 (single isomer, unassigned) [Example 233, 4-[1-(4-Amino-3-methyl-1H-pyrazolo[3,4-d]pyrimidin-1-yl)ethyl]-6-chloro-3-ethoxy-2-[1-(2,2,2-trifluoroethyl)azetidin-3-yl]benzonitrile] | ≤ 10
8 | CCOc1c(C(C)n2nc(C)c3c(N)ncnc32)cc(Cl)c(C#N)c1C1CN(C(C)(C)C(=O)NC)C1 (single isomer, unassigned) [Example 240, 2-(3-{3-[1-(4-Amino-3-methyl-1H-pyrazolo[3,4-d]pyrimidin-1-yl)ethyl]-5-chloro-6-cyano-2-ethoxyphenyl}azetidin-1-yl)-N,2-dimethylpropanamide] | ≤ 10
9 | CCOc1c(C(C)n2nc(C)c3c(N)ncnc32)cc(Cl)c(C#N)c1C1CN(C(C)=O)C1 (single isomer, unassigned) [Example 242, 2-(1-Acetylazetidin-3-yl)-4-[1-(4-amino-3-methyl-1H-pyrazolo[3,4-d]pyrimidin-1-yl)ethyl]-6-chloro-3-ethoxybenzonitrile] | ≤ 10
10 | CCOc1c(C(C)n2nc(C)c3c(N)ncnc32)cc(Cl)c(C#N)c1C1CN(C(=O)CC)C1 (single isomer, unassigned) [Example 243, 4-[1-(4-Amino-3-methyl-1H-pyrazolo[3,4-d]pyrimidin-1-yl)ethyl]-6-chloro-3-ethoxy-2-(1-propionylazetidin-3-yl)benzonitrile] | ≤ 10
11 | CCOc1c(C(C)n2nc(C)c3c(N)ncnc32)cc(Cl)c(C#N)c1C1CN(C(=O)C(C)C)C1 (single isomer, unassigned) [Example 244, 4-[1-(4-Amino-3-methyl-1H-pyrazolo[3,4-d]pyrimidin-1-yl)ethyl]-6-chloro-3-ethoxy-2-(1-isobutyrylazetidin-3-yl)benzonitrile] | ≤ 10

Now from value to compound:

Row | IC50 [nM] | SMILES
12 | ≤ 10 | COc1c(C(C)n2nc(C)c3c(N)ncnc32)cc(Cl)c(C)c1-c1cncc(C(=O)N(C)CCN)c1 (single isomer, unassigned) [Example 178, 5-(3-(1-(4-amino-3-methyl-1H-pyrazolo[3,4-d]pyrimidin-1-yl)ethyl)-5-chloro-2-methoxy-6-methylphenyl)-N-(2-aminoethyl)-N-methylnicotinamide]
13 | ≤ 10 | COc1c(C(C)n2nc(C)c3c(N)ncnc32)cc(Cl)c(C)c1CCC(=O)N(C)C (single isomer, unassigned) [Example 180, 3-(3-(1-(4-Amino-3-methyl-1H-pyrazolo[3,4-d]pyrimidin-1-yl)ethyl)-5-chloro-2-methoxy-6-methylphenyl)-N,N-dimethylpropanamide]
14 | ≤ 10 | COc1c(C(C)n2nc(C)c3c(N)ncnc32)cc(Cl)c(C)c1-c1ccc(N(C)C)nc1 (single isomer, unassigned) [Example 185, 1-(1-(5-chloro-3-(6-(dimethylamino)pyridin-3-yl)-2-methoxy-4-methylphenyl)ethyl)-3-methyl-1H-pyrazolo[3,4-d]pyrimidin-4-amine]
15 | ≤ 10 | COc1c(C(C)n2nc(C)c3c(N)ncnc32)cc(Cl)c(C)c1-c1ccnc(N(C)C)c1 (single isomer, unassigned) [Example 186, 1-(1-(5-chloro-3-(2-(dimethylamino)pyridin-4-yl)-2-methoxy-4-methylphenyl)ethyl)-3-methyl-1H-pyrazolo[3,4-d]pyrimidin-4-amine]
16 | ≤ 10 | COc1c(C(C)n2nc(C)c3c(N)ncnc32)cc(Cl)c(C)c1-c1ccnc(N2CC(O)C2)c1 (single isomer, unassigned) [Example 187, 1-(4-(3-(1-(4-amino-3-methyl-1H-pyrazolo[3,4-d]pyrimidin-1-yl)ethyl)-5-chloro-2-methoxy-6-methylphenyl)pyridin-2-yl)azetidin-3-ol]
17 | ≤ 10 | CCOc1c(C(C)n2nc(C)c3c(N)ncnc32)cc(Cl)c(C)c1-c1ccc(C(=O)NC)nc1 (single isomer, unassigned) [Example 199, 5-(3-(1-(4-amino-3-methyl-1H-pyrazolo[3,4-d]pyrimidin-1-yl)ethyl)-5-chloro-2-ethoxy-6-methylphenyl)-N-methylpicolinamide]
18 | ≤ 10 | CCOc1c(C(C)n2nc(C)c3c(N)ncnc32)cc(Cl)c(C)c1-c1ccnc(C(=O)N(C)CCO)c1 (single isomer, unassigned) [Example 202, 4-(3-(1-(4-amino-3-methyl-1H-pyrazolo[3,4-d]pyrimidin-1-yl)ethyl)-5-chloro-2-ethoxy-6-methylphenyl)-N-(2-hydroxyethyl)-N-methylpicolinamide]
19 | ≤ 10 | CCOc1c(C(C)n2nc(C)c3c(N)ncnc32)cc(Cl)c(C)c1-c1cnn(CC(=O)NC)c1 (single isomer, unassigned) [Example 204, 2-(4-(3-(1-(4-amino-3-methyl-1H-pyrazolo[3,4-d]pyrimidin-1-yl)ethyl)-5-chloro-2-ethoxy-6-methylphenyl)-1H-pyrazol-1-yl)-N-methylacetamide]
20 | ≤ 10 | CCOc1c(C(C)n2nc(C)c3c(N)ncnc32)cc(Cl)c(C)c1-c1cnn(CC(=O)N(C)C)c1 (single isomer, unassigned) [Example 205, 2-(4-(3-(1-(4-amino-3-methyl-1H-pyrazolo[3,4-d]pyrimidin-1-yl)ethyl)-5-chloro-2-ethoxy-6-methylphenyl)-1H-pyrazol-1-yl)-N,N-dimethylacetamide]
21 | ≤ 10 | COc1c(C(C)n2nc(C)c3c(N)ncnc32)cc(Cl)c(C)c1-c1cnn(CC(=O)N(C)C)c1 (single isomer, unassigned) [Example 206, 2-(4-(3-(1-(4-amino-3-methyl-1H-pyrazolo[3,4-d]pyrimidin-1-yl)ethyl)-5-chloro-2-methoxy-6-methylphenyl)-1H-pyrazol-1-yl)-N,N-dimethylacetamide]
22 | ≤ 10 | CCOc1c(C(C)n2nc(C)c3c(N)ncnc32)cc(C#N)c(C)c1-c1cnn(C)c1 (single isomer, unassigned) [Example 210, 5-[1-(4-Amino-3-methyl-1H-pyrazolo[3,4-d]pyrimidin-1-yl)ethyl]-4-ethoxy-2-methyl-3-(1-methyl-1H-pyrazol-4-yl)benzonitrile]
23 | ≤ 10 | CCOc1c(C(C)n2nc(C)c3c(N)ncnc32)cc(Cl)c(C#N)c1C1CN(CC(C)C)C1 (single isomer, unassigned) [Example 216, 4-[1-(4-Amino-3-methyl-1H-pyrazolo[3,4-d]pyrimidin-1-yl)ethyl]-6-chloro-3-ethoxy-2-(1-isobutylazetidin-3-yl)benzonitrile]
24 | ≤ 10 | CCOc1c(C(C)n2nc(C)c3c(N)ncnc32)cc(Cl)c(C#N)c1C1CN(C2CCC2)C1 (single isomer, unassigned) [Example 218, 4-[1-(4-Amino-3-methyl-1H-pyrazolo[3,4-d]pyrimidin-1-yl)ethyl]-6-chloro-2-(1-cyclobutylazetidin-3-yl)-3-ethoxybenzonitrile]
25 | ≤ 10 | CCOc1c(C(C)n2nc(C)c3c(N)ncnc32)cc(Cl)c(C#N)c1C1CN(CCO)C1 (single isomer, unassigned) [Example 219, 4-[1-(4-Amino-3-methyl-1H-pyrazolo[3,4-d]pyrimidin-1-yl)ethyl]-6-chloro-3-ethoxy-2-[1-(2-hydroxyethyl)azetidin-3-yl]benzonitrile]
26 | ≤ 10 | CCOc1c(C(C)n2nc(C)c3c(N)ncnc32)cc(Cl)c(C#N)c1C1CN(C(COC)COC)C1 (single isomer, unassigned) [Example 226, 4-[1-(4-Amino-3-methyl-1H-pyrazolo[3,4-d]pyrimidin-1-yl)ethyl]-6-chloro-3-ethoxy-2-{1-[2-methoxy-1-(methoxymethyl)ethyl]azetidin-3-yl}benzonitrile]
